The values that follow are results of earlier work, collected in paper PMC6219411 (Drug Design, Development and Therapy, 2018).

For this data set the following is noted: oral preparation.

Some results are limits rather than exact numbers.

For `CC(C)(C#N)c1cc(Cn2cncn2)cc(C(C)(C)C#N)c1` [anastrozole, Anastrozole], the mean elimination half-life is 40 to 50 h and the “time to maximum plasma concentrations” value is at most 2 h.
